The text below walks through data of US20250171468A1, “PHENOXIDO COPPER COMPLEXES AND METHODS FOR USING THEM IN THE TREATMENT OF CANCER” (UNIVERSITY OF LOUISIANA LAFAYETTE, priority 2023, published 2025).

Assay [1] relates to A2780 cells. The experiment in a line: Cell death induction, Annexin V / propidium iodide flow cytometry. The note with it: A2780, 24 h; applied at concentration causing 50% decrease in proliferation. Type of assay: cell-based, human. The procedure: The induction of cell death in A2780 cancer cells was monitored by flow cytometry. Three types of cells were identified by incubation with Annexin V antibody and propidium iodide (PI). The normal cells were Annexin V and PI negative.
(§1) Both assays were performed according to the manufacturers' protocols with one modification in caspase induction assay, which was the use of CellEvent™ Caspase-3/7 Green Detection Reagent only for detection of Caspase-3/7 activation. […] After the 24 h incubation period, cells were washed once with PBS (0.1 M, pH 7.4), detached by trypsinization (0.25% trypsin-EDTA (Gibco™), resuspended in 500 L of culture medium and divided into two separate samples. The first sample was used in the apoptosis assay and the second one was used to detect the activation of caspases 3/7 in A2780 cells. The samples were analyzed using the BD FACSVerse flow cytometer (Becton Dickinson, USA) in three separate experiments, while at least 10^4 events were recorded for each sample prepared in duplicates.

Assay [2] concerns caspases 3/7 in A2780 cells. The experiment in a line: Activation of effector caspases 3/7, flow cytometry. The settings on record: A2780, 24 h incubation, IC50 concentrations. It is filed as cell-based, human. The procedure:
To assess the participation of apoptosis on the cell death induced by the studied complexes, the activity of effector caspases 3/7 in A2780 cells incubated with the tested compounds was determined by flow cytometry. […] This unequivocally means that the cell death they induce proceeds via a mechanism independent from caspases.
as §1

The test system of assay [3] is A2780 cells. Briefly: Mitochondrial membrane potential analysis. It is filed as cell-based, human. The note with it: A2780, 24 h incubation, IC50 concentrations. As to the method: In order to get more insight about the mechanisms involved in the induction of cell death in the A2780 cells treated with the complexes 4, 6, and 7, the detection of mitochondrial membrane potential in the cells was performed by means of flow cytometric analysis using a specific kit. […] Both these agents induced the apoptosis via the intrinsic route of apoptosis activation, characterized by the efflux of cytochrome c from the damaged mitochondria to the cytoplasm of the cells, followed by the formation of […] and activation of effector caspases 3/7 leading to the destruction of cell cytoskeleton and fragmentation of DNA. […] The major suspect in this case is the induction of cuproptosis, a relatively newly discovered mechanism of cell death caused by copper, which is characterized by the high intracellular levels of copper, low levels of apoptosis, yet substantial antiproliferative effects on the target cells. […]
The cells were washed with PBS, detached by trypsin treatment, isolated by centrifugation, and resuspended in 500 iL of culture medium. […] The samples were measured in triplicates, while at least 10^4 events were recorded using BD FACSVerse flow cytometer (Becton Dickinson, USA). […]

The subject of assay [4] is A2780 cells. Briefly: Intracellular ROS/superoxide production. Type of assay: cell-based, human. The settings on record: A2780, 24 h. As to the method:
The effects of the tested compounds on the ROS production in A2780 cells and on the progression of the oxidative stress caused by the known pro-oxidant agent (pyocyanin) were observed by means of flow cytometry using a specific kit of intracellular ROS, and superoxide detection, respectively. […] Approximately the same pattern was identified also in case of superoxide production (FIG. 16).
The oxidative stress analysis was performed using ROS-ID® Total ROS/Superoxide detection kit (Enzo Life Sciences, US) according to the manufacturer protocol. The samples were analyzed in triplicates on multimode microplate reader Infinite PRO M200 (Tecan, Switzerland). The control samples contained 500 iM pyocyanin.

Assay [5] concerns A2780 cells. The experiment in a line: Cell cycle analysis by flow cytometry. It is filed as cell-based, human. The settings on record: A2780, 24 h; 4 and 6 at 3 μM, 7 at 15 μM, cisplatin at 19 μM. As to the method:
Similar cellular effects were described for a number of copper(II) complexes previously for a number of copper(II) complexes involving various ligands [40-43.]
The A2780 cells (Sigma, 93112519-1VL) were cultivated according to the producer's instructions and seeded at the concentration of 10^4 cells/well in 96-wells. […] After 24 h, the cells were washed once with PBS (0.1 M, pH 7.4) and cell cycle analysis was performed according to the protocol based on BD Cycletest™ Plus DNA kit (Becton Dickinson, USA). Measurements were performed using BD FACSVerse flow cytometer (Becton Dickinson, USA) in three independent experiments, each done in duplicate, while at least 5×10^3 events were recorded for each sample.

The subject of assay [6] is A2780 cells. The experiment in a line: Autophagy induction, CYTO-ID kit flow cytometry. The note with it: A2780, 24 h; 4 and 6 at 3 μM, 7 at 15 μM, cisplatin at 19 μM. It is filed as cell-based, human. As to the method: To further explore the mechanisms involved in the cellular death of A2780 cells induced by the complexes, the autophagy progression was monitored in the cells using a specific flow cytometry-based kit. The autophagy signaling caused by the incubation with the tested compounds was compared to the untreated control group of cells and positive control group, which included cells treated with the chloroquine/rapamycin (CQ/Rapamycin) mixture inducing strong autophagic response in cells. […] In fact, autophagy might have a dual role in cancer as it can help the cancer cells to overcome metabolic stress (hypoxia, lack of nutrients) and suppress tumor progression through degradation of oncogenic proteins. Many anticancer agents, including the copper(II) complexes, which mechanism of action includes different cellular processes, such as inhibition of mTORC1, proteasome inhibition, inhibition of histone deacetylases or topoisomerases, induce autophagy. On the other hand, the apoptosis is evidently a main route of cell death in the A2780 cells caused by complex 7.
The analyses were performed according to the manufacturer's protocol on A2780 cells pretreated for 24 h by the tested compounds. […] The samples were analyzed using the BD FACSVerse flow cytometer (Becton Dickinson, USA) in three separate experiments, while at least 10^4 events were recorded for each sample prepared in duplicates. […]

The subject of assay [7] is all tested cancer cell lines. The settings on record: cited from earlier work.

As for `N.N.[Cl][Pt][Cl]` [Cisplatin, cisplatin, reference compound], the “induction of cell death (apoptosis and necrosis)” value in the assay with A2780 cells [1] was “most intensive induction of cell death processes”. In addition, in assay [2], the “activation of effector caspases 3/7” value is recorded as “significant activation”. In addition, the mitochondrial membrane damage result in the assay on A2780 cells [3] is “impairment of the mitochondrial membrane function/permeability”. For the same molecule, the “promotion of oxidative stress (ROS production) by the compound itself” value with A2780 cells [4] (no pyocyanin pretreatment) is “none of the tested complexes 4, 6, and 7 nor cisplatin showed any significant abilities to promote the oxidative stress by themselves”. Moreover, the “effect on oxidative stress caused by pyocyanin pretreatment” value in the assay with A2780 cells [4] (pretreated with pyocyanin) is “only slight antioxidative effects”. Further, the cell-cycle modification entry in the assay on A2780 cells [5] was “significant arrest of cells in S phase”. Besides, in the assay on A2780 cells [6], the activation of autophagy result is reported as “significant activation of autophagy”.
As to `[Cu+2].[O-]c1cccc2cccnc12.[O-]c1cccc2cccnc12` [[Cu(8-HQ)2]], the “IC50 compared with cisplatin” value in assay [7] was “less than that of cisplatin”.
Turning to `[Cu+2].[O-]c1c(I)cc(Cl)c2cccnc12.[O-]c1c(I)cc(Cl)c2cccnc12` [[Cu(CQ)2]], the “IC50 compared with cisplatin” value in assay [7] is “less than that of cisplatin”.
For `CCN(CC)C(=S)[S-].CCN(CC)C(=S)[S-].[Cu+2]` [[Cu(DDC)2]], the “IC50 compared with cisplatin” value in assay [7] is on record as “less than that of cisplatin”.
On to `On1ccccc1=S.On1ccccc1=S.[Cu]` [[Cu(Pyr)2]], for which, in assay [7], the “IC50 compared with cisplatin” value was “less than that of cisplatin”.
